In patent publication US12528809B2, “Crystalline forms of gepotidacin” (GLAXOSMITHKLINE INTELLECTUAL PROPERTY DEVELOPMENT LIMITED, priority 2020, dated 2026):

Assays:
[1] = Physical form stability / conversion to Form 1; assay type: physicochemical
Procedure: The suspension was heated with a heat gun to dissolve most of the solids, and then left to slowly cool to room temperature. The resultant crystals were filtered and analysed by DSC, TGA, and XRPD.
Amorphous gepotidacin mesylate can be generated via lyophilization. Form 1 (150 mg) was dissolved MeCN/water (80/20 v/v; 1 mL). A clarifying filtration was performed and the filtrate was added to a 20 mL vial. The solution was frozen under liquid nitrogen and lyophilized for 4 hours.

[2] = Moisture sorption/desorption isotherms (DVS); conditions: first sorption cycle
Text: The moisture sorption/desorption isotherms of gepotidacin mesylate dihydrate and gepotidacin HCl were obtained over a range of 5-90% relative humidity.

Structure (SMILES)	physical form stability ([1]; ambient conditions)	physical form stability ([1]; ambient conditions, listed as Gepotidacin Mesylate Anhydrate (Form 2))	critical RH step [2] [% RH]	uptake of water ([2]; critical step at 60% RH, indicates conversion to Form 1) [%]	physical form stability ([1]; amorphous by lyophilization from MeCN/water (80/20 v/v))	physical form stability ([1]; amorphous by lyophilization of an aq. t-BuOH solution, ambient conditions)
CS(=O)(=O)O.O.O.O=c1ccc2ncc(=O)n3c2n1C[C@H]3CN1CCC(NCc2cc3c(cn2)OCCC3)CC1 [Gepotidacin mesylate anhydrate (Form 2)]	convert to Gepotidacin mesylate dihydrate (Form 1) after one hour	unstable under ambient conditions	60	4.8	–	–
CS(=O)(=O)O.O.O.O=c1ccc2ncc(=O)n3c2n1C[C@H]3CN1CCC(NCc2cc3c(cn2)OCCC3)CC1 [Amorphous gepotidacin mesylate]	–	–	–	–	started to convert to Form 1 unless stored in a sealed vial with desiccant	physically stable for at least three days
